Data published in ChEMBL document CHEMBL1122598, “A cannabinoid derived prototypical analgesic” (1984).

What was measured:
Format in all cases: functional
Mus musculus [1] = assay: Analgesic activity was determined by Mouse phenylbenzoquinone writhing test(PBQ) at a dose of 10 mg/kg subcutaneous administration.; conditions: sc
Mus musculus [2] = assay: Analgesic activity was determined by mouse phenylbenzoquinone writhing test(PBQ) at a dose 56 mg/kg subcutaneous administration.; conditions: sc
Mus musculus [3] = assay: Analgesic activity was determined by Mouse phenylbenzoquinone writhing test(PBQ) at a dose of 56 mg/kg subcutaneous administration.; conditions: sc
Mus musculus [4] = assay: Analgesic activity was determined by Mouse phenylbenzoquinone writhing test(PBQ) at a dose of 100 mg/kg subcutaneous administration.; conditions: sc
Mus musculus [5] = assay: Analgesic activity was determined by Mouse phenylbenzoquinone writhing test(PBQ) at a dose of 32 mg/kg subcutaneous administration.; conditions: sc
Mus musculus [6] = organism: Mus musculus; assay: Analgesic activity was determined by mouse tail flick (TF), 1 hour postdose.
Mus musculus [7] = organism: Mus musculus; assay: Analgesic activity was determined by mouse phenylbenzoquinone (PBQ) induced writhing, 1 hour postdose.
Mus musculus [8] = organism: Mus musculus; assay: Analgesic activity was determined by mouse hot plate (HP), 1 hour postdose.
Rattus norvegicus [9] = organism: Rattus norvegicus; assay: Analgesic activity was determined by rat tail clamp assay(RTC), 2 hour postdose.
Rattus norvegicus [10] = organism: Rattus norvegicus; assay: Analgesic activity was determined by rat flinch jump (FJ), 2 hour postdose.

Compound | inhibition in vivo at 10 mg/kg (Mus musculus [1]) [%] | inhibition in vivo at 56 mg/kg (Mus musculus [2]) [%] | inhibition in vivo at 56 mg/kg (Mus musculus [3]) [%] | inhibition in vivo at 100 mg/kg (Mus musculus [4]) [%] | inhibition in vivo at 32 mg/kg (Mus musculus [5]) [%] | MPE50 (Mus musculus [6]) [mg/kg] | MPE50 (Mus musculus [7]) [mg/kg] | MPE50 (Mus musculus [8]) [mg/kg] | MPE50 (Rattus norvegicus [9]) [mg/kg] | MPE50 (Rattus norvegicus [10]) [mg/kg]
CCCCCCC(C)(C)c1ccc(C(C)CC(C)O)c(O)c1 (stereo unspecified) | 27 | 55 | 50 | 53 | 52 |  |  |  |  | 
CCCCCCC(C)(C)c1ccc([C@H]2CCC[C@H](O)C2)c(O)c1 |  |  |  |  |  | 55.7 | 3.8 | >56 | 12.3 | 17.8
CCCCCCC(C)(C)c1ccc([C@H]2CCCC(=O)C2)c(O)c1 |  |  |  |  |  | 15.3 | 4.5 | >32 | 26.1 | 11.5
CCCCCCC(C)(C)c1ccc([C@H]2CCC[C@@H](O)C2)c(O)c1 |  |  |  |  |  | 4.4 | 1 | 8.1 | 4.7 | 4.9
CCCCCCC(C)(C)c1ccc(C(C)CC(C)=O)c(O)c1 (stereo unspecified) |  | 0 |  |  |  |  |  |  |  | 
CCCCCc1cc(O)c2c(c1)OC(C)(C)[C@@H]1CC[C@@H](O)C[C@@H]21 |  |  |  |  |  | 9.1 | 0.63 | 34.4 | 7 | 36.4
CCCCCc1cc(O)c2c(c1)OC(C)(C)[C@@H]1CCC(C)=C[C@@H]21 [DRONABINOL] |  |  |  |  |  | 55 | 5.9 | >178 | 29.1 | 83.1
CN1CC[C@]23c4c5ccc(O)c4O[C@H]2[C@@H](O)C=C[C@H]3[C@H]1C5 [MORPHINE] |  |  |  |  |  | 5.7 | 1.8 | 4.2 | 4.8 | 10.3
